Assay results: ChEMBL document CHEMBL6083277, “Discovery of SZJK-0421: A Novel Potent, Low Toxicity, Selective Second Generation of CRM1 Inhibitor for the Treatment of Both Hematological and Solid Tumors” (J Med Chem, 2024)
pIC50: −log10 of the molar value. The source made the active and inactive calls. The calls are words filed in the database; no cut-off is given here.

How the values were obtained:
[1] = biological target: Exportin-1 (Homo sapiens) (UniProt O14980); assay: Reversible binding affinity to CRM1 in human U2OS cells incubated for 4 hrs by DAPI staining based fluorescence microscopic analysis; format: cell-based
Chain of Exportin-1 (Homo sapiens) (O14980 whole entry): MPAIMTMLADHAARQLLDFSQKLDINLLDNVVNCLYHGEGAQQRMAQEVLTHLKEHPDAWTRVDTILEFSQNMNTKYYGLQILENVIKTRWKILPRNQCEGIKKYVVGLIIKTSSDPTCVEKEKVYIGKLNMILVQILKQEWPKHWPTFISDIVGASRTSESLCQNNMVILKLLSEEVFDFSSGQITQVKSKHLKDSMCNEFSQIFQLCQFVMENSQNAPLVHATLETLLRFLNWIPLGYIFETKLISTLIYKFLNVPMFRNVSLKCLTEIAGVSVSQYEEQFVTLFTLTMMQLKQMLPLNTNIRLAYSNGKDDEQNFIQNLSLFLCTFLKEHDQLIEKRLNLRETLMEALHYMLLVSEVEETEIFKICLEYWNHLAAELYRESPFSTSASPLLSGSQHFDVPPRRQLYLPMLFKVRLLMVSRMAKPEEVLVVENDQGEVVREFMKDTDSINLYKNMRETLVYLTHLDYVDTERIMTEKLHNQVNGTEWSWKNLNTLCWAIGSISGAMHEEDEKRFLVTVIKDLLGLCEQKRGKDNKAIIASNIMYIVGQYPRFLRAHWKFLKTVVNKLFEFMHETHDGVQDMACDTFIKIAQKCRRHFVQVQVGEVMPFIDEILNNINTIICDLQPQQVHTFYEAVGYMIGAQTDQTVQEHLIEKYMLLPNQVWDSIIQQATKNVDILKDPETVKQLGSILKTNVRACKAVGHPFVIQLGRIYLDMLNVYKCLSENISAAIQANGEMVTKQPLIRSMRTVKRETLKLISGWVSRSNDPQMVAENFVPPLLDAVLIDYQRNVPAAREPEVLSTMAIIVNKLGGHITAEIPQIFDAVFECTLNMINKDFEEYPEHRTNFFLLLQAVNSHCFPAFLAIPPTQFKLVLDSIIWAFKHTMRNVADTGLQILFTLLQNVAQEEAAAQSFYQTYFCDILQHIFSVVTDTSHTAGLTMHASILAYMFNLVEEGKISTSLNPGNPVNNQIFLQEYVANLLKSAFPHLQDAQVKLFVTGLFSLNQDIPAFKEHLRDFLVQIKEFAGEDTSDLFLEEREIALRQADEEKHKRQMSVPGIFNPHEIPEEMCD

[2] = Metabolic stability in rat liver microsomes assessed as half life measured upto 60 mins in presence of NADPH by LC/MS-MS analysis; format: ADME, Microsome
[3] = Cmax in male Sprague-Dawley rat plasma at 10 mg/kg, IG measured at 6 hrs by LC-MS/MS analysis; format: ADME, organism-based; details: po
[4] = Toxicity in BALB/c mouse assessed as animal death at 60 mg/kg, po measured on day 6,7 and 11; format: organism-based; details: in vivo, 576 h, time 24 day
[5] = test system: AN3-CA; assay: Antiproliferative activity against human AN3-CA cells assessed as inhibition of cell growth incubated for 72 hrs by celltiter-glo assay; format: functional, cell-based
[6] = test system: BXPC-3; assay: Antiproliferative activity against human BXPC-3 cells assessed as inhibition of cell growth incubated for 72 hrs by celltiter-glo assay; format: functional, cell-based; details: BXPC-3, 72 h
[7] = Half life in male Sprague-Dawley rat at 2 mg/kg, iv measured upto 30 hrs by LC-MS/MS analysis; format: ADME, organism-based; details: in vivo
[8] = Antiproliferative activity against human ARP-1 cells assessed as inhibition of cell growth incubated for 72 hrs by celltiter-glo assay; format: functional, cell-based; details: ARP-1, 72 h
[9] = Metabolic stability in human liver microsomes assessed as half life measured upto 60 mins in presence of NADPH by LC/MS-MS analysis; format: ADME, Microsome
[10] = biological target: Ran-specific GTPase-activating protein (Homo sapiens, UniProt P43487); assay: Inhibition of RANBP1 nuclear export in human U2OS cells assessed as increase in fluorescence intensity measured for 15 mins by DAPI staining based fluorescence microscopic analysis; format: cell-based
Chain of Ran-specific GTPase-activating protein (P43487 whole entry): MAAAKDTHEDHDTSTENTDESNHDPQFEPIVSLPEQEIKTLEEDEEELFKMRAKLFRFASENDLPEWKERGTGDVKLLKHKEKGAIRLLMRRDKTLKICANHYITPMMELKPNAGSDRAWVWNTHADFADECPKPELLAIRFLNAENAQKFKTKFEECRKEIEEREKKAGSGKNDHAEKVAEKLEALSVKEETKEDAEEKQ

[11] = biological target: Voltage-gated inwardly rectifying potassium channel KCNH2 (Homo sapiens, UniProt Q12809); assay: Inhibition of hERG in HEK293 cells; format: toxicity, cell-based
Chain of Voltage-gated inwardly rectifying potassium channel KCNH2 (Q12809 whole entry): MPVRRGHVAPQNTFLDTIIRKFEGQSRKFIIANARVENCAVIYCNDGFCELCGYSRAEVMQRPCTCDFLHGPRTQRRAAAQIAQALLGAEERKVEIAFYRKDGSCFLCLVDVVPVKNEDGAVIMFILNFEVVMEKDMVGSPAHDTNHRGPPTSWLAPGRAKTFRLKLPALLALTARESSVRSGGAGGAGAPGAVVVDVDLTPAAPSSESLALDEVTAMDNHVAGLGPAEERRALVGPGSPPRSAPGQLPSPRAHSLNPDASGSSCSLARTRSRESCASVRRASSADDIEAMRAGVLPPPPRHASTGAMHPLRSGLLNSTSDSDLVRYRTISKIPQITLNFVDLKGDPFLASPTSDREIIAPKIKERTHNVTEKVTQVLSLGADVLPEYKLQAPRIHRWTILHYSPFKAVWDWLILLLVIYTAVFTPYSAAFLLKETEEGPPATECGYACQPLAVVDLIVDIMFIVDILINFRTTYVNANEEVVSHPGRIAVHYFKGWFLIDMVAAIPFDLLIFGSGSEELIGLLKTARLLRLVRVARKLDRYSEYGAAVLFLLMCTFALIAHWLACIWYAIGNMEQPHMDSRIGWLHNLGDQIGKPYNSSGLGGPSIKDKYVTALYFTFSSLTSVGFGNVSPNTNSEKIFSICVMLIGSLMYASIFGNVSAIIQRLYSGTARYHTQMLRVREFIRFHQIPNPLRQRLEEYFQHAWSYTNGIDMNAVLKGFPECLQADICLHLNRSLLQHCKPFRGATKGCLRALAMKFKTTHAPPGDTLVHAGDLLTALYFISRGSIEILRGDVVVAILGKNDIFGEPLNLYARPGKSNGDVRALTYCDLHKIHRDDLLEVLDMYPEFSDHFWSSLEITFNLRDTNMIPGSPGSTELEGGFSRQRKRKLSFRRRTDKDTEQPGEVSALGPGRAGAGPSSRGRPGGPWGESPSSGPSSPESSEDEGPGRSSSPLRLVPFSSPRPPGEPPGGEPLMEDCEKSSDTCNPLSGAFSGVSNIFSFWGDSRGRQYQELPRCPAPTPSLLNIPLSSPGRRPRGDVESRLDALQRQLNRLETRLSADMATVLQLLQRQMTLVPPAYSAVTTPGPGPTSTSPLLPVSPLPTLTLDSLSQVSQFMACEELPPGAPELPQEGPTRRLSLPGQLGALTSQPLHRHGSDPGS

[12] = AUC (0 to infinity) in male Sprague-Dawley rat at 2 mg/kg, iv measured upto 30 hrs by LC-MS/MS analysis; format: ADME, organism-based; details: in vivo
[13] = test system: MM1.S; assay: Induction of apoptosis in human MM1.S cells assessed as increase in FOXO3A signal intensity; format: functional, cell-based
[14] = AUC in male Sprague-Dawley rat brain at 10 mg/kg, IG measured at 6 hrs by LC-MS/MS analysis; format: ADME, organism-based; details: po
[15] = Toxicity in BALB/c mouse assessed as appearance of erectile hair at 60 mg/kg, po administered once daily for 21 days; format: organism-based; details: in vivo, 504 h, time 21 day
[16] = test system: ARH-77; assay: Antiproliferative activity against human ARH-77 cells assessed as inhibition of cell growth incubated for 72 hrs by celltiter-glo assay; format: functional, cell-based; details: ARH-77, 72 h
[17] = AUC (0 to t) in male Sprague-Dawley rat at 10 mg/kg, po measured upto 30 hrs by LC-MS/MS analysis; format: ADME, organism-based; details: in vivo
[18] = Toxicity in NOD-SCID mouse assessed as hyperplasia of crypt in intestine at 60 mg/kg, po measured every 2 days for 21 days by H and E staining based analysis; format: organism-based; details: in vivo, 504 h, time 21 day
[19] = Toxicity in NOD-SCID mouse implanted with human MM1.S cells assessed as body weight loss at 15 mg/kg, po measured upto 21 days; format: organism-based; details: in vivo, 504 h, time < 21 day
[20] = test system: SW872; assay: Antiproliferative activity against human SW872 cells assessed as inhibition of cell growth incubated for 72 hrs by celltiter-glo assay; format: functional, cell-based; details: SW872, 72 h
[21] = Cmax in male Sprague-Dawley rat at 10 mg/kg, po measured upto 30 hrs by LC-MS/MS analysis; format: ADME, organism-based; details: in vivo
[22] = Metabolic stability in rat liver microsomes assessed as intrinsic clearance measured upto 60 mins in presence of NADPH by LC/MS-MS analysis; format: ADME, Microsome; details: read-out: CLH
[23] = test system: HCT-116; assay: Antiproliferative activity against human HCT-116 cells assessed as inhibition of cell growth incubated for 72 hrs by celltiter-glo assay; format: functional, cell-based; details: HCT-116, 72 h
[24] = AUC in male Sprague-Dawley rat plasma at 10 mg/kg, IG measured at 6 hrs by LC-MS/MS analysis; format: ADME, organism-based; details: po
[25] = Toxicity in BALB/c mouse assessed as appearance of loose stools at 60 mg/kg, po administered once daily for 21 days; format: organism-based; details: in vivo, 504 h, time 21 day
[26] = Toxicity in NOD-SCID mouse assessed as loss of crypt depth in intestine at 60 mg/kg, po measured every 2 days for 21 days by H and E staining based analysis; format: organism-based; details: in vivo, 504 h, time 21 day
[27] = Half life in male Sprague-Dawley rat at 10 mg/kg, po measured upto 30 hrs by LC-MS/MS analysis; format: ADME, organism-based; details: in vivo
[28] = test system: MM1.S; assay: Induction of apoptosis in human MM1.S cells at 0.5 to 1 uM incubated for 48 hrs by Annexin V-FITC/PI staining based flow cytometry analysis; format: functional, cell-based; details: dose 0.5-1 µM
[29] = Metabolic stability in mouse liver microsomes assessed as intrinsic clearance measured upto 60 mins in presence of NADPH by LC/MS-MS analysis; format: ADME, Microsome; details: read-out: CLH
[30] = Metabolic stability in dog liver microsomes assessed as intrinsic clearance measured upto 60 mins in presence of NADPH by LC/MS-MS analysis; format: ADME, Canis lupus familiaris, Microsome; details: read-out: CLH
[31] = test system: MM1.S; assay: Inhibition of CRM1 protein expression in human MM1.S cells by Western blot analysis; format: functional, cell-based; details: dose 0.25-1.25 µM
[32] = Tmax in male Sprague-Dawley rat at 10 mg/kg, po measured upto 30 hrs by LC-MS/MS analysis; format: ADME, organism-based; details: in vivo
[33] = Toxicity in NOD-SCID mouse assessed as shortening of villi in intestine at 15 mg/kg, po measured every 2 days for 21 days by H and E staining based analysis; format: organism-based; details: in vivo, 504 h, time 21 day
[34] = test system: RPMI-8226; assay: Antiproliferative activity against human RPMI-8226 cells assessed as inhibition of cell growth incubated for 72 hrs by celltiter-glo assay; format: functional, cell-based; details: RPMI-8226, 72 h
[35] = test system: LoVo; assay: Antiproliferative activity against human LoVo cells assessed as inhibition of cell growth incubated for 72 hrs by celltiter-glo assay; format: functional, cell-based
[36] = Toxicity in BALB/c mouse assessed as decrease in body weight at 30 mg/kg, po administered once daily for 21 days; format: organism-based; details: in vivo, 504 h, time 21 day
[37] = Metabolic stability in mouse liver microsomes assessed as half life measured upto 60 mins in presence of NADPH by LC/MS-MS analysis; format: ADME, Microsome
[38] = test system: MOLM-13; assay: Antiproliferative activity against human MOLM-13 cells assessed as inhibition of cell growth incubated for 72 hrs by celltiter-glo assay; format: functional, cell-based; details: MOLM-13, 72 h
[39] = test system: KMS-11; assay: Antiproliferative activity against human KMS-11 cells assessed as inhibition of cell growth incubated for 72 hrs by celltiter-glo assay; format: functional, cell-based; details: KMS-11, 72 h
[40] = Metabolic stability in dog liver microsomes assessed as half life measured upto 60 mins in presence of NADPH by LC/MS-MS analysis; format: ADME, Canis lupus familiaris, Microsome
[41] = test system: MM1.S; assay: Antiproliferative activity against human MM1.S cells assessed as inhibition of cell growth incubated for 72 hrs by celltiter-glo assay; format: functional, cell-based
[42] = Oral bioavailability in male Sprague-Dawley rat at 10 mg/kg measured upto 30 hrs by LC-MS/MS analysis; format: ADME, organism-based; details: in vivo
[43] = Metabolic stability in monkey liver microsomes assessed as half life measured upto 60 mins in presence of NADPH by LC/MS-MS analysis; format: ADME, Macaca mulatta, Microsome; details: rhesus monkey
[44] = test system: LAMA-84; assay: Antiproliferative activity against human LAMA-84 cells assessed as inhibition of cell growth incubated for 72 hrs by celltiter-glo assay; format: functional, cell-based; details: LAMA-84, 72 h
[45] = Toxicity in NOD-SCID mouse assessed as decrease in villus height to crypt depth ratio at 60 mg/kg, po measured every 2 days for 21 days by H and E staining based analysis; format: organism-based; details: in vivo, 504 h, time 21 day
[46] = test system: MM1.S; assay: Inhibition of CRM1 protein expression in human MM1.S cells at 0.25 to 1.25 uM by Western blot analysis; format: functional, cell-based; details: dose 0.25-1.25 µM, time 2-24 hrs
[47] = AUC (0 to t) in male Sprague-Dawley rat at 2 mg/kg, iv measured upto 30 hrs by LC-MS/MS analysis; format: ADME, organism-based; details: in vivo
[48] = test system: MV4-11; assay: Antiproliferative activity against human MV4-11 cells assessed as inhibition of cell growth incubated for 72 hrs by celltiter-glo assay; format: functional, cell-based; details: MV4-11, 72 h
[49] = Metabolic stability in monkey liver microsomes assessed as intrinsic clearance measured upto 60 mins in presence of NADPH by LC/MS-MS analysis; format: ADME, Macaca mulatta, Microsome; details: rhesus monkey, read-out: CLH
[50] = AUC (0 to infinity) in male Sprague-Dawley rat at 10 mg/kg, po measured upto 30 hrs by LC-MS/MS analysis; format: ADME, organism-based; details: in vivo
[51] = Metabolic stability in human liver microsomes assessed as intrinsic clearance measured upto 60 mins in presence of NADPH by LC/MS-MS analysis; format: ADME, Microsome; details: read-out: CLH

NC(=O)/C(=C/n1cnc(-c2cc(C(F)(F)F)cc(C(F)(F)F)c2)n1)c1cncnc1 [ELTANEXOR]
Activity [1]: Active | half-life [2]: > 2 h | Cmax [3]: 141 ng/mL | Activity [4]: Toxic | pIC50 [5]: 5.93 | pIC50 [6]: 5.66 | half-life [7]: 3 h | pIC50 [8]: 5.57 | half-life [9]: > 2 h | pIC50 [10]: 6.26 | pIC50 [11]: 5.09 | AUC(0-inf) [12]: 998 ng·h/mL | Activity [13]: Active | AUC at 6 h [14]: 83.3 ng·h/mL | Activity [15]: Toxic | pIC50 [16]: 6.36 | AUC(0-t) at 30 h [17]: 2540 ng·h/mL | Activity [18]: Non-toxic | Activity [19]: Toxic | pIC50 [20]: 5.96 | Cmax [21]: 720 ng/mL | microsomal CLint [22]: 15.5 µL/min/mg | pIC50 [23]: 6.88 | AUC at 6 h [24]: 1940 ng·h/mL | Activity [25]: Toxic | Activity [26]: Non-toxic | half-life [27]: 2.7 h | Activity [28]: Active | microsomal CLint [29]: 15.6 µL/min/mg | microsomal CLint [30]: 3.2 µL/min/mg | inhibition [31]: Dose-dependent-effect | Tmax [32]: 1 h | Activity [33]: Non-toxic | pIC50 [34]: 6.66 | pIC50 [35]: 6.52 | Activity [36]: Non-toxic | half-life [37]: > 2 h | pIC50 [38]: 6.36 | pIC50 [39]: 5.90 | half-life [40]: > 2 h | pIC50 [41]: 7.07 | bioavailability [42]: 52% | half-life [43]: > 2 h | pIC50 [44]: 5.54 | Activity [45]: Non-toxic | inhibition [46]: Time-dependent-effect | AUC(0-t) at 30 h [47]: 963 ng·h/mL | pIC50 [48]: 7.25 | microsomal CLint [49]: 11.8 µL/min/mg | AUC(0-inf) [50]: 2590 ng·h/mL | microsomal CLint [51]: 0.2 µL/min/mg
